Data on nine compounds can be found in patent US10073083B2, “Prophylactic and therapeutic agents for FGFR3 diseases and screening method for the same” (KYOTO UNIVERSITY, priority 2013, dated 2018).

Ends that are not written are not given here. Peptide text beside a SMILES is read from it. * marks the point of attachment. Cbz = O=C(OCc1ccccc1)*

Test [1] deals with FGFR3. Description: Western blotting of FGFR3 in primary chondrocytes. In kind it is cell-based, mouse. The method, then:
Cell lysates were separated by SDS-PAGE. The separated proteins were immunostained with anti-FGFR3 antibody (Cell Signaling, #4574), anti-phosphorylated MAPK antibody (Cell Signaling, #9109) or anti-β-actin antibody (Cell Signaling, #49776).
The investigation of the effects of the inhibitors was performed as follows. A total of 2.5×10^5 primary chondrocytes were plated in each well of a six-well plate, and were cultured in the presence or absence of 1 μM lovastatin for 2 days. Then, the culture was supplemented with […] MG132, 100 nM Baf A1 or vehicle. Two hours later, the culture was further supplemented with 50 ng/ml FGF9 (PeproTech) and incubated at 4° C. for 2 hours. Then cells were collected and subjected to analysis by Western blotting.
On the technique in general: A western blot detects proteins with antibodies after separation by electrophoresis.

In test [2] the test system is TD-iPSCs. Description: Chondrogenic differentiation of TD-iPSCs, cartilaginous extracellular matrix by safranin O staining. In kind it is cell-based, human. The settings on record: day 42; for chondrogenic differentiation of TD-iPSCs (safranin O): TD714-3, CNP 100 nM, NF449 25 μM, FGFR inhibitor 1 μM, IGF1R inhibitor 1 nM; for chondrogenic differentiation / cartilage formation of TD-iPSCs (safranin O): statin 1 μM in cartilage differentiation medium. The protocol: (§1) The iPS cell lines were transferred to Matrigel (Invitrogen)-coated dishes, then Essential 8 medium (Life Technologies) supplemented with 50 units/ml penicillin and 50 μg/ml streptomycin was added, and the cell lines were cultured for undifferentiated maintenance under the feeder-free conditions. The iPS cell lines formed colonies that consisted of 1 to 2×10^5 cells 10 to 15 days after seeding, and the medium was changed to mesodermal differentiation medium (DMEM/F12 supplemented with 10 ng/ml Wnt3A (R&D), 10 ng/ml activin A (R&D), 1% insulin-transferrin-sodium selenite (Invitrogen), 1% fetal calf serum, 50 units/ml penicillin and 50 μg/ml streptomycin) (day zero of differentiation). Three days after (day 3 of differentiation), the medium was changed to cartilage differentiation medium (DMEM/F12 supplemented with 50 μg/ml ascorbic acid, 10 ng/ml BMP2 (Osteopharma), 10 ng/ml TGFβ (PeproTech), 10 ng/ml GDF5, 1% insulin-transferrin-sodium selenite, 1% FBS, 50 units/ml penicillin and 50 μg/ml streptomycin). Eleven days after (day 14 of differentiation), the cells were physically separated from the dishes, and transferred to a suspension culture in the same medium. Fourteen days after transfer (day 28 of differentiation) and 28 days after transfer (day 42 of differentiation), the cells formed particles and the particles were harvested for analyses. The culture medium was changed every 2 to 7 days during differentiation.
FGFR3 neutralizing antibody was added to the medium during the chondrogenic differentiation of TD-iPSCs to inhibit FGFR3 activity, and chondrocyte formation was assessed. The FGFR3 neutralizing antibody (Santa Cruz (sc-13121)) was added as 1 μl of an antibody solution (200 ng/ml) in 1 ml of cartilage differentiation medium. As a control, IgG (Cell Signaling, #27295) was used. The chondrogenic differentiation was performed in the same manner as in Example 2, and the cartilaginous particles were assessed on days 28 and 42 of differentiation.
(§2) Several drugs that had previously been reported to affect FGFR3 signaling and/or chondrocyte differentiation (CNP, NF449, a FGFR inhibitor, and an IGF1R inhibitor) were selected, and their ability to rescue TD-iPSCs from failure of chondrogenic differentiation was investigated. The stock CNP (Sigma, N8768), NF449 (Abcam, ab120415), a FGFR inhibitor (PD 173047, Cayman) and an IGF1R inhibitor (IGF-1R inhibitor, PPP. Calbiochem, 407247) solutions were prepared at a concentration of 100 μM, 50 mM, 1 mM, 1 μM, respectively. The stock solutions were added to cartilage differentiation medium at the final concentrations of CNP, NF449, the FGFR inhibitor and the IGF1R inhibitor of 100 nM, 25 μM 1 μM, and 1 nM, respectively (day 3 of differentiation). TD-iPSCs were chondrogenically differentiated in the same manner as in Example 2, and the cartilaginous particles were assessed on days 28 and 42 of differentiation. As a control, an equal volume of water or DMSO was added to the medium. mRNA expression analysis was performed in the same manner as in Example 1.
To investigate whether lovastatin rescues TD-iPSCs from failure of chondrogenic differentiation, evaluation was performed in the same manner as in Example 4. A stock lovastatin (TCI, L0214) solution was prepared by dissolving it in DMSO at a concentration of 10 mM, and the solution was added to cartilage differentiation medium at a final concentration of 1 μM.

The test system of test [3] is TD-iPSCs. Description: Real-time RT-PCR expression analysis of chondrocyte and fibroblast marker genes in chondrogenically differentiated TD-iPSCs. In kind it is cell-based, human. The note with it: TD714-3; CNP 100 nM, IGF1R inhibitor 1 nM; day 28. The method, then: mRNAs were isolated from the cell lines using RNeasy Mini Kit (Qiagen). A total of 500 ng of the total RNA was used as a template for cDNA synthesis by reverse transcription using ReverTra Ace system (TOYOBO). Standard curves for quantitative PCR (real-time PCR) were established and used for analyses. Real-time PCR analysis was performed in Step One system (ABI) using KAPA SYBR FAST qPCR kit Master Mix ABI Prism (KAPA BIOSYSTEMS).
as §1, §2
Background: Real-time PCR tracks product formation cycle by cycle.

The test system of test [4] is FGFR3^Ach mice. Description: Bone growth of ACH model mice treated with statins, X-ray imaging. It is filed as in vivo, mouse. The settings on record: day 3 to day 14, 15 days old. The method, then: The FGFR3^Ach mice were crossed with wild-type mice (C57BL/6 background). A rosuvastatin solution at a dose of 1.0 mg/kg was intraperitoneally administered to the crossed mice 6 times per week from 3 days after birth until day 14. The mice were euthanized on day 15, and the bodies and the bone formation were examined by X-ray imaging (Faxitron DX-50). Genomic DNA was extracted from the toes of each mouse and subjected to genotype analysis. Also, a lovastatin solution at a dose of 0.4 mg/kg was intraperitoneally administered to the crossed mice 6 times per week from day 3 after birth until day 28, and the mice were euthanized on day 29 for examination of the bodies and the bone formation in the same manner as above.

Test [5] deals with TD-iPSC-derived cartilaginous particles. In words: Incorporation of BrdU by TD-iPSC-derived cartilaginous particles. In kind it is cell-based, human. The note with it: presence vs absence of statin, 1 μM; day 28.
[6] abbreviates: rosuvastatin 1.0 mg/kg intraperitoneally 6 times per week.

Turning to `CO/C1=C\C(C)=C\[C@@H](C)[C@@H](O)[C@@H](C)C/C(C)=C/C=C/[C@H](OC)[C@@H]([C@@H](C)[C@@H](O)[C@H](C)[C@@]2(O)C[C@@H](O)[C@H](C)[C@@H](C(C)C)O2)OC1=O` [Bafilomycin A1], the “expression of FGFR3” value in test [1] (FGFR3^Ach chondrocytes in the presence of 1 μM lovastatin, 100 nM Baf A1) is recorded as “slightly increased”.
As for `CCN(CC)CCCCNc1ncc2cc(-c3cc(OC)cc(OC)c3)c(NC(=O)NC(C)(C)C)nc2n1` [FGFR inhibitor, PD 173047], the “chondrogenic differentiation of TD-iPSCs (safranin O)” value in test [2] is listed as “had no effect on the chondrogenic differentiation of TD-iPSCs”.
Take `COc1cc([C@@H]2c3cc4c(cc3[C@H](O)[C@H]3COC(=O)[C@@H]23)OCO4)cc(OC)c1OC` [IGF1R inhibitor]: in test [3], the “expression of chondrocyte marker genes (SOX9, COL2, AGGRECAN)” value is reported as “increased the expression of chondrocyte marker genes” and the “expression of fibroblast marker genes (COL1A1, COL1A2)” value is listed as “decreased the expression of fibroblast marker genes”. Moreover, the “chondrogenic differentiation of TD-iPSCs (safranin O)” value in test [2] was “rescued TD-iPSCs from failure of chondrogenic differentiation”.
On to `CC(C)C[C@@H](C=O)NC(=O)[C@H](CC(C)C)NC(=O)[C@H](CC(C)C)NC(=O)OCc1ccccc1` [MG132] (Cbz-Leu-Leu-Leu-aldehyde), for which the “amount of FGFR3” value in test [1] (FGFR3^Ach chondrocytes cultured in the presence of 1 μM lovastatin, 10 mM MG132) is recorded as “increased the amount of FGFR3”.
Consider `O=C(Nc1cc(C(=O)Nc2ccc(S(=O)(=O)O)cc2S(=O)(=O)O)cc(C(=O)Nc2ccc(S(=O)(=O)O)cc2S(=O)(=O)O)c1)Nc1cc(C(=O)Nc2ccc(S(=O)(=O)O)cc2S(=O)(=O)O)cc(C(=O)Nc2ccc(S(=O)(=O)O)cc2S(=O)(=O)O)c1` [NF449], for which the “chondrogenic differentiation of TD-iPSCs (safranin O)” value in test [2] is recorded as “had no effect on the chondrogenic differentiation of TD-iPSCs”.
`CC(C)c1c(C(=O)Nc2ccccc2)c(-c2ccccc2)c(-c2ccc(F)cc2)n1CC[C@@H](O)C[C@@H](O)CC(=O)O` [atorvastatin]: the “chondrogenic differentiation / cartilage formation of TD-iPSCs (safranin O)” value in test [2] is given as “rescued abnormal cartilage formation in the TD-iPSC-derived chondrocytes”.
In the case of `CC[C@H](C)C(=O)O[C@H]1CCC=C2C=C[C@H](C)[C@H](CC[C@@H]3C[C@@H](O)CC(=O)O3)[C@H]21` [mevastatin], the “chondrogenic differentiation / cartilage formation of TD-iPSCs (safranin O)” value in test [2] is reported as “rescued abnormal cartilage formation in the TD-iPSC-derived chondrocytes”.
In the case of `CC(C)c1nc(N(C)S(C)(=O)=O)nc(-c2ccc(F)cc2)c1/C=C/[C@@H](O)C[C@@H](O)CC(=O)O` [rosuvastatin], in test [4] (setting [6]), the “anteroposterior lengths of the skulls (Cranial A-P)” value is listed as “increased”, the “lengths of the femurs (Femur)” value is given as “increased”, the “lengths of the tibiae (Tibia)” value is reported as “increased” and the “lengths of the ulnas (Ulna)” value is on record as “increased”. Besides, the “differences in the lengths vs wild-type mice receiving vehicle” value in test [4] (rosuvastatin 1.0 mg/kg intraperitoneally, t-test) is given as “no significant differences”. Further, the “number of BrdU-positive cells” value in test [5] is reported as “significantly increased the number of BrdU-positive cells”. In addition, the “chondrogenic differentiation / cartilage formation of TD-iPSCs (safranin O)” value in test [2] was “rescued abnormal cartilage formation in the TD-iPSC-derived chondrocytes”.
In the case of “c-type natriuretic peptide (GLSKGCFGLKLDRIGSMSGLGC; ends and bridges not checked; cysteine pairing not given here; UniProt P23582 105-126, looked up) [CNP, c-type natriuretic peptide (Sigma, N8768)]”, in test [3], the “expression of chondrocyte marker genes (SOX9, COL2, AGGRECAN)” value was “increased the expression of chondrocyte marker genes” and the “expression of fibroblast marker genes (COL1A1, COL1A2)” value is recorded as “decreased the expression of fibroblast marker genes”. Besides, the “chondrogenic differentiation of TD-iPSCs (safranin O)” value in test [2] is “rescued TD-iPSCs from failure of chondrogenic differentiation”.
